# Assay results from patent US20260335274A1, “COMPOSITIONS AND METHODS OF MINIMIZING LONG COVID” (priority 2022, published 2026).
# How the values were obtained:
# OC43 human coronavirus [1] = experiment: Post-infection test, MRC-5 cells, TCID50; format: cell-based, human coronavirus OC43 (MRC-5 human cells as host); conditions: 10 min exposure; for inhibition at 50 µM: read-out: titer reduction, post-infection
# Protocol: Then, 100 μl of either EC16 formulations or Remdesivir solutions of various concentrations were applied onto the cells for 10 min before being replaced by serum-free EMEM. The TCID50 values were determined after incubation for 4-7 days.
# OC43 human coronavirus [2] = experiment: Pre-infection test, MRC-5 cells, TCID50; format: cell-based, human coronavirus OC43 (MRC-5 human cells as host); conditions: MRC5, 10 min; 50 μM EC16m, 10 min incubation before virus; read-out: reduction in viral infectivity, pre-infection
# Protocol: EC16m nasal formulations were incubated with MRC-5 cells in 96 well plates for 10 min, and then removed. A series dilution of OC43 in serum-free EMEM was added to the cells and incubated for 1 h. The viral dilutions were then replaced with serum-free EMEM, and TCID50 infection rate was determined after 4-7 days of incubation.
# OC43 human coronavirus [3] = experiment: Direct contact (contact inhibition) antiviral test, TCID50; conditions: Betacoronavirus 1, OC43, MRC5, in Homo sapiens, 0.5 h, read-out: reduction of OC43 infectivity
# [4] = Cytotoxicity of F18m in normal saline, MTT assay; format: cell-based; conditions: human, hnepc; EC16m in saline formulation, 60 min exposure; read-out: concentration not toxic to HNEpC
# Protocol: The F18m glycerol stock was diluted 10× with normal saline to 1.4 mM of EC16m. A series dilution of this nanoformulation in Airway Growth Medium was applied to a monolayer of Human […] Primary Epithelial Cells (HNPEC, PromoCell) and incubated for 1 h before medium change and overnight incubation, followed by straining with an MTT assay.
# [5] = in vivo, cited from earlier work
# SARS-CoV-2 = conditions: one-hour incubation; cited from earlier work
SMILES,"inhibition of viral replication, post-infection (OC43 human coronavirus [1]; 12.5 μM EC16m) [%]","inhibition at 12.5 µM (OC43 human coronavirus [1]; MRC5, 10 min, 12.5 μM EC16m, read-out: inhibition of viral replication, post-infection) [%]","inhibition at 50 µM (OC43 human coronavirus [1]; MRC5, 10 min, 50 μM) [%]",inhibition at 50 µM (OC43 human coronavirus [2]) [%],inhibition at 50 µM (OC43 human coronavirus [3]) [%],MNTC at 1 h [4] [µM],bioavailability [5],Cmax ([5]; read-out: serum maximum concentration) [nM],EC90 (SARS-CoV-2) [µM],"log reduction at 50 µM (OC43 human coronavirus [1]; MRC5, 10 min, 50 μM, n=4, read-out: log10 titer reduction, post-infection)"
"CCCCCCCCCCCCCCCC(=O)Oc1c(O)cc(C2Oc3cc(O)cc(O)c3CC2OC(=O)c2cc(O)c(O)c(O)c2)cc1O (centres unmarked) [EC16m, Epigallocatechin-3-Gallate-mono-palmitate]",99,> 99,99.8,98.5,99.9,< 280,,,,
"O=C(O[C@@H]1Cc2c(O)cc(O)cc2O[C@@H]1c1cc(O)c(O)c(O)c1)c1cc(O)c(O)c(O)c1 [EGCG, epigallocatechin-3-gallate]",,,,,,,very low,570,69,
"CCC(CC)COC(=O)[C@H](C)N[P@](=O)(OC[C@H]1O[C@@](C#N)(c2ccc3c(N)ncnn23)[C@H](O)[C@@H]1O)Oc1ccccc1 [remdesivir, reference compound]",,,99.8,,,,,,,2.69 ± 0.24
